Test [1] deals with A-375. The test is described as follows: Antiproliferative activity against human A375 cells assessed as cell viability at 1 uM after 48 hrs by trypan blue exclusion assay. The following applies: for viability at 1 µM: A-375, 48 h, read-out: Activity. The test is classed as functional.
Test [2] concerns A-375. The test is described as follows: Antiproliferative activity against human A375 cells assessed as cell viability at 10 uM after 48 hrs by trypan blue exclusion assay. The test is classed as functional. The following applies: A-375, 48 h, read-out: Activity.
The test system of test [3] is A-375. The test is described as follows: Antiproliferative activity against human A375 cells assessed as cell viability at 5 uM after 48 hrs by trypan blue exclusion assay. The test is classed as functional. Particulars: A-375, 48 h, read-out: Activity.
Test [4] concerns K-562R. The test is described as follows: Growth inhibition of human K562R cells assessed as cell viability at 10 uM after 48 hrs by trypan blue exclusion assay. Particulars: read-out: Activity. The test is classed as functional.
Test [5] has as its system MIA PaCa-2. The test is described as follows: Growth inhibition of gemcitabine-resistant human MIAPaCa2 cells assessed as cell viability at 10 uM after 48 hrs by trypan blue exclusion assay relative to control. The test is classed as functional. Particulars: MIA PaCa-2, 48 h, read-out: Activity.
Test [6] relates to K562. The test is described as follows: Growth inhibition of human K562 cells assessed as cell viability at 10 uM after 48 hrs by trypan blue exclusion assay. The test is classed as functional. Particulars: K562, 48 h, read-out: Activity.
Test [7] can be described thus: Growth inhibition of human A375 RIV cells assessed as cell viability at 10 uM after 48 hrs by trypan blue exclusion assay. The following applies: A-375, 48 h, read-out: Activity. The test is classed as functional.
The nature of test [8]: Growth inhibition of human A375 R5C3 cells assessed as cell viability at 10 uM after 48 hrs by trypan blue exclusion assay. The following applies: A-375, 48 h, read-out: Activity. The test is classed as functional.
Test [9] concerns BXPC-3. The test is described as follows: Growth inhibition of human BxPC3 cells assessed as cell viability at 10 uM after 48 hrs by trypan blue exclusion assay. The test is classed as functional. Particulars: BXPC-3, 48 h, read-out: Activity.
The subject of test [10] is A-375. The experiment in a line: Antiproliferative activity against human A375 cells after 48 hrs by trypan blue exclusion assay. The test is classed as functional, cell-based. The following applies: A-375, 48 h.
The target in test [11] is T1, Eukaryotic translation initiation factor 2-alpha kinase 3 (Homo sapiens) (UniProt Q9NZJ5).
T1 sequence (whole entry): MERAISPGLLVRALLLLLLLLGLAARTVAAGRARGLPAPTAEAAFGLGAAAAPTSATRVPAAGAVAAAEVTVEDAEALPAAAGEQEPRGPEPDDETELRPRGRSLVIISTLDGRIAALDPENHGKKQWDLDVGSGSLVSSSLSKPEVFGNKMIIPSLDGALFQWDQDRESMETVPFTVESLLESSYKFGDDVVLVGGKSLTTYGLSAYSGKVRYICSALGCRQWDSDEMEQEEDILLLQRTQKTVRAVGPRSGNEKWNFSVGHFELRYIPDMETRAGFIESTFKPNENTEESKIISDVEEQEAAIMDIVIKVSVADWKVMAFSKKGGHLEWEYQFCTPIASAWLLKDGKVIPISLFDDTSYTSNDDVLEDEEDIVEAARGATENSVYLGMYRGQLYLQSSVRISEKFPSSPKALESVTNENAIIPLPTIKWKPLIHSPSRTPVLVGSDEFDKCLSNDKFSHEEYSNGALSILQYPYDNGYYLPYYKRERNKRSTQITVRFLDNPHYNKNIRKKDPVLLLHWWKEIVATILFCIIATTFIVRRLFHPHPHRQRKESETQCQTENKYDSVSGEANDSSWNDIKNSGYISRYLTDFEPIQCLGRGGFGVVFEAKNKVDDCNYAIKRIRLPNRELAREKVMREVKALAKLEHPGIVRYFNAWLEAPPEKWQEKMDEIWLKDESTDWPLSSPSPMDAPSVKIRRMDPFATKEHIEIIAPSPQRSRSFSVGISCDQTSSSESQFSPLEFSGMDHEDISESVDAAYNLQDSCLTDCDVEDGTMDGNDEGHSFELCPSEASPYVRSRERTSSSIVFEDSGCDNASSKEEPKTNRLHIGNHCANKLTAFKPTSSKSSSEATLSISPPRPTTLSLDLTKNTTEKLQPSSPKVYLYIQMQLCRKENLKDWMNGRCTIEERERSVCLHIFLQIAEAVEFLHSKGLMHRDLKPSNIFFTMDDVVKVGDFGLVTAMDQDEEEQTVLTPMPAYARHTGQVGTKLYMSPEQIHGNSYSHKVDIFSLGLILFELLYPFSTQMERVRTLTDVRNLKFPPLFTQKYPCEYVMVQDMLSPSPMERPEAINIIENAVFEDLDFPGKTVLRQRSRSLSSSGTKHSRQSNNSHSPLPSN
The test is described as follows: Activation of PERK in human A375 cells at 1 to 2.5 uM after 48 hrs by Western blot analysis. The test is classed as cell-based. On the technique in general: Immunoblotting shows a protein as a band on a membrane.

The target of test [12] is T1, Eukaryotic translation initiation factor 2-alpha kinase 3 (Homo sapiens). The experiment in a line: Activation of PERK in human A375 cells at 2.5 to 10 uM after 12 hrs by Western blot analysis. The test is classed as cell-based.
Test [13] concerns A-375. The experiment in a line: Induction of apoptosis in human A375 cells assessed as cleavage of PARP protein at 2.5 to 10 uM after 12 hrs by Western blot analysis. The test is classed as functional, cell-based.
In test [14] the test system is A-375. The experiment in a line: Induction of autophagy in human A375 cells assessed as increase in conversion of LC3-I to LC3-II at 1 to 2.5 uM after 48 hrs by Western blot analysis. The test is classed as functional, cell-based.
Test [15] addresses T1, Eukaryotic translation initiation factor 2-alpha kinase 3 (Homo sapiens). The experiment in a line: Activation of PERK in human A375 cells assessed as increase in CHOP expression at 1 to 2.5 uM after 48 hrs by Western blot analysis. The test is classed as cell-based.
Test [16] shares this target. The test is described as follows: Activation of PERK in human A375 cells assessed as increase in CHOP expression at 2.5 to 10 uM after 12 hrs by Western blot analysis. The test is classed as cell-based.
Test [17] relates to A-375. The test is described as follows: Induction of autophagy in human A375 cells assessed as increase in conversion of LC3-I to LC3-II at 1 to 5 uM after 24 hrs by Western blot analysis. The test is classed as functional, cell-based.
Test [18] relates to A-375. The experiment in a line: Induction of autophagy in human A375 cells assessed as increase in conversion of LC3-I to LC3-II at 2.5 to 10 uM after 12 hrs by Western blot analysis. The test is classed as functional, cell-based.

pEC50: −log10 of the molar value. The source made the active and inactive calls. The calls are words filed in the database; no cut-off is given here.

Take `CC(=O)Nc1nc(-c2cccc(NS(=O)(=O)c3ccc(C#C[Si](C)(C)C)cc3)c2)cs1`: the viability at 1 µM in [1] was found to be 94.3%. Also, in test [2], the viability at 10 µM was less than 1%. Also, the viability at 5 µM in [3] came to 4.2%.

With `CCCCC#Cc1ccc(S(=O)(=O)Nc2cccc(-c3csc(NC(C)=O)n3)c2)cc1`, the viability at 1 µM in [1] stood at 73.2%. Also, the viability at 10 µM in test [2] was less than 1%. Moreover, in [3], the viability at 5 µM worked out at 9.3%.

For the molecule `CCCCCCC#Cc1ccc(S(=O)(=O)Nc2cccc(-c3csc(NC)n3)c2)cc1`, the viability at 1 µM in [1] was 36.6%. In addition, in test [2], the viability at 10 µM was determined as 1.2%. Moreover, in [3], the viability at 5 µM stood at 8.1%.

`CC(=O)Nc1nc(-c2cccc(NS(=O)(=O)c3cccc(Br)c3)c2)cs1`: in test [1], the outcome was inactive. Moreover, the viability at 10 µM in test [2] is 36%. For the same molecule, in test [3], the viability at 5 µM stood at 67.4%.

For `C#Cc1ccc(S(=O)(=O)Nc2cccc(-c3csc(NC(C)=O)n3)c2)cc1`, the viability at 1 µM in test [1] is 59.2%. Also, in [2], the viability at 10 µM stood at 1.2%. For the same molecule, the viability at 5 µM in [3] is 38.3%.

On to `CCCCCC/C=C\c1ccc(S(=O)(=O)Nc2cccc(-c3csc(NC(C)=O)n3)c2)cc1`, for which the viability at 10 µM is 41.1% in test [4]; 11.4% in [5]; 8.9% in [6]; less than 1% in [7]; less than 1% in [8]; 2% in test [9]. The viability at 1 µM in test [1] turned out to be 48.8%. For the same molecule, the viability at 5 µM in test [3] is 2.3%.

One may read the pEC50 as −log10 of the EC50, conventionally taken in molar units. Low readings indicate a high EC50, high ones a low EC50. As to `CC(=O)Nc1nc(-c2cccc(NS(=O)(=O)c3cccc(C#CCO)c3)c2)cs1`, the viability at 1 µM in [1] turned out to be 85.4%. For the same molecule, the pEC50 in test [10] is 5.00. The viability at 10 µM in test [2] stood at 45.3%. In addition, the viability at 5 µM in test [3] was 66.2%.

Take `CC(=O)Nc1nc(-c2cccc(NS(=O)(=O)c3ccc(Br)cc3)c2)cs1`: in test [1], the result was inactive. The viability at 10 µM in [2] is 25.6%. Further, the viability at 5 µM in test [3] turned out to be 19.7%.

Regarding `C#Cc1cccc(S(=O)(=O)Nc2cccc(-c3csc(NC(C)=O)n3)c2)c1`, the viability at 1 µM in test [1] was determined as 74.3%. Besides, in test [2], the viability at 10 µM is 18.6%. Further, the viability at 5 µM in test [3] worked out at 29%.

Take `CCCCCCC#Cc1ccc(S(=O)(=O)Nc2cccc(-c3csc(NC(C)=O)n3)c2)cc1`: in [1], the viability at 1 µM came to 40.7%. In test [2], the viability at 10 µM came to 5.8%. For the same molecule, the viability at 5 µM in test [3] came to 12.8%.

In the case of `CC(=O)Nc1nc(-c2cccc(NS(=O)(=O)c3ccc(C#CC4CCCCC4)cc3)c2)cs1`, in test [1], the viability at 1 µM was 52.3%. The viability at 10 µM in test [2] was found to be 1.2%. Also, the viability at 5 µM in [3] is 1.2%.

On to `CC(=O)Nc1nc(-c2cccc(NS(=O)(=O)c3ccc(C#CCCc4ccccc4)cc3)c2)cs1`, for which, in test [1], the viability at 1 µM is 11.5%. The viability at 10 µM in test [2] is less than 1%. In addition, in [3], the viability at 5 µM stood at 4.2%.

Consider `CCCCCCC#Cc1cccc(S(=O)(=O)Nc2cccc(-c3csc(NC(C)=O)n3)c2)c1`, for which the viability at 1 µM in test [1] stood at 56.9%. Besides, in test [2], the viability at 10 µM is less than 1%. Also, in [3], the viability at 5 µM was determined as 1.2%.

In the case of `CC(=O)Nc1nc(-c2cccc(NS(=O)(=O)c3ccc(C#CCO)cc3)c2)cs1`, in [1], the viability at 1 µM was 81.3%. The pEC50 in test [10] was 5.00. For the same molecule, the viability at 10 µM in test [2] amounted to 48.8%. Moreover, the viability at 5 µM in [3] was found to be 99.3%.

On to `CCCCCCC#Cc1ccc(S(=O)(=O)Nc2cccc(-c3csc(N)n3)c2)cc1`, for which, in test [1], the viability at 1 µM worked out at 97.6%. Moreover, in [2], the viability at 10 µM amounted to 3.5%. The viability at 5 µM in test [3] is less than 1%.

Take `CCCCCCc1ccc(S(=O)(=O)Nc2cccc(-c3csc(NC(C)=O)n3)c2)cc1`: the viability at 10 µM in test [4] was found to be 41.6%; in [5], 1.3%; in test [6], 23.2%; in test [7], 3.4%; in test [8], 1.4%; in test [9] it was 5.9%. The viability at 1 µM in test [1] was determined as 49.9%. Moreover, the viability at 5 µM in test [3] is less than 1%.

`CCCCCCC#Cc1ccc(S(=O)(=O)Nc2cccc(-c3csc(Nc4ccccc4)n3)c2)cc1`: the viability at 1 µM in test [1] stood at 87.1%. Also, in test [2], the viability at 10 µM came out at 5.8%. In test [3], the viability at 5 µM was 59.2%.

In the case of `CC(=O)Nc1nc(-c2cccc(NS(=O)(=O)c3cccc(C#C[Si](C)(C)C)c3)c2)cs1`, the viability at 1 µM in test [1] is 61.6%. Moreover, in [2], the viability at 10 µM amounted to 5.8%. Also, in test [3], the viability at 5 µM is less than 1%.

Turning to `CCCCCCCCC#Cc1ccc(S(=O)(=O)Nc2cccc(-c3csc(NC(C)=O)n3)c2)cc1`, the viability at 1 µM in [1] was 39.6%. Moreover, the viability at 10 µM in test [2] is less than 1%. For the same molecule, the viability at 5 µM in test [3] turned out to be 8.9%.

For the molecule `CCCCCCCCc1ccc(S(=O)(=O)Nc2cccc(-c3csc(NC(C)=O)n3)c2)cc1`, the outcome in [11], in [12], in [13], in test [14], in [15] and in test [16] was Active. The result in test [17] and in test [18] was Active. The viability at 10 µM in [4] is 10.1%; in [2] it was less than 1%; in [5], 11.4%; in [6], 3.8%; in test [7], 2.6%; in test [8], 1.4%. Further, the viability at 10 µM in [9] is 4.9%. Further, the viability at 1 µM in test [1] worked out at 34.8%. Besides, the viability at 5 µM in [3] is less than 1%.

These data come from ChEMBL document CHEMBL4038290, “Structure activity relationship and optimization of N-(3-(2-aminothiazol-4-yl)aryl)benzenesulfonamides as anti-cancer compounds against sensitive and resistant cells” (Bioorg Med Chem Lett, 2017).
